Data taken from ChEMBL document CHEMBL1212917, “Substituted E-3-(3-indolylmethylene)-1,3-dihydroindol-2-ones with antitumor activity. In depth study of the effect on growth of breast cancer cells” (2010).

What was measured:
Format in all cases: functional
[1] = Growth inhibition of human leukemia cells after 48 hrs; details: Leukemia cell; for CC50: read-out: LC50 (the source's name)
NSCLC = experiment: Growth inhibition of human NSCLC cells after 48 hrs
[2] = Growth inhibition of human colon cancer cells after 48 hrs; details: Cancer cell lines; for CC50: read-out: LC50 (the source's name)
[3] = Growth inhibition of human CNS cancer cells after 48 hrs; details: Cancer cell lines; for CC50: read-out: LC50 (the source's name)
[4] = Growth inhibition of human melanoma cells after 48 hrs; details: Melanoma cell; for CC50: read-out: LC50 (the source's name)
[5] = Growth inhibition of human Ovarian cancer cells after 48 hrs; details: Cancer cell lines; for CC50: read-out: LC50 (the source's name)
[6] = Growth inhibition of human renal cancer cells after 48 hrs; details: Cancer cell lines; for CC50: read-out: LC50 (the source's name)
[7] = Growth inhibition of human prostate cancer cells after 48 hrs; details: Cancer cell lines; for CC50: read-out: LC50 (the source's name)
[8] = Growth inhibition of human breast cancer cells after 48 hrs; details: Cancer cell lines; for CC50: read-out: LC50 (the source's name)

Row | Structure (SMILES) | GI50 [1] [µM] | CC50 [1] [µM] | GI50 (NSCLC) [µM] | LC50 (NSCLC) [µM] | GI50 [2] [µM] | CC50 [2] [µM] | GI50 [3] [µM] | CC50 [3] [µM] | GI50 [4] [µM] | CC50 [4] [µM] | GI50 [5] [µM] | CC50 [5] [µM] | GI50 [6] [µM] | CC50 [6] [µM] | GI50 [7] [µM] | CC50 [7] [µM] | GI50 [8] [µM] | CC50 [8] [µM] | further results
1 | COc1cc2c(/C=C3/C(=O)N(C)c4ccc(O)cc43)c(Cl)n(C)c2cc1C | 0.05 | 19.9 | 0.22 | 42.7 | 0.07 | 26.9 | 0.04 | 29.5 | 0.11 | 33.1 | 0.26 | 47.9 | 0.11 | 36.3 | 0.1 | 24 | 0.06 | 40.7 | 
2 | COc1ccc2c(c1)/C(=C\c1c(Cl)[nH]c3ccc(N(C)C)cc13)C(=O)N2 | 1.62 | 72.4 | 3.02 | 58.9 | 1.55 | 30.2 | 2.09 | 32.4 | 3.55 | 44.7 | 3.39 | 50.1 | 3.02 | 52.5 | 2.88 | 50.1 | 1.15 | 55 | 
3 | COc1cc2c(/C=C3/C(=O)Nc4ccc(Br)cc43)c(Cl)n(C)c2cc1C | 2.51 |  | 1.91 | 37.1 | 1.55 | 29.5 | 0.93 | 38.9 | 1.55 | 31.6 | 3.47 | 43.6 | 1.7 | 26.9 | 1.55 | 26.3 | 0.95 | 31.6 | 
4 | COc1cc2c(cc1C)N(C)C(=O)/C2=C/c1c(Cl)n(C)c2cc(C)c(OC)cc12 | 6.92 |  | 19.5 | 93.3 | 20.4 | 97.7 | 10.5 | 61.7 | 16.2 |  | 18.6 | 89.1 | 15.8 | 77.6 | 35.5 |  | 6.76 | 83.2 | 
5 | COc1cc2c(/C=C3/C(=O)N(C)c4ccc(O)cc43)c[nH]c2cc1C | 3.47 |  | 6.03 | 91.2 | 2.95 |  | 3.72 | 67.6 | 3.24 | 66.1 | 5.62 | 95.5 | 5.89 | 93.3 | 3.55 |  | 2.75 | 63.1 | TGI [1]: 36.3 µM; TGI (NSCLC): 21.9 µM; TGI [2]: 24.6 µM; TGI [3]: 24 µM; TGI [4]: 15.1 µM; TGI [5]: 31.6 µM; TGI [6]: 28.2 µM; TGI [7]: 15.8 µM; TGI [8]: 16.2 µM
6 | COc1cc2c(/C=C3/C(=O)N(C)c4ccccc43)c(Cl)n(C)c2cc1C | 0.25 | 46.8 | 0.58 |  | 0.2 | 72.4 | 0.2 | 74.1 | 0.34 | 69.2 | 0.38 | 95.5 | 0.33 | 79.4 | 0.39 | 66.1 | 0.28 | 95.5 | 
7 | CN(C)c1ccc2[nH]c(Cl)c(/C=C3/C(=O)Nc4ccc(Cl)cc43)c2c1 | 1.62 | 91.2 | 2.57 | 46.8 | 2.09 | 22.9 | 1.58 | 18.2 | 2.69 | 37.1 | 3.31 | 41.7 | 1.78 | 29.5 | 2.45 | 46.8 | 1.32 | 55 | 
8 | COc1cc2c(/C=C3/C(=O)Nc4ccc(N(C)C)cc43)c(Cl)n(C)c2cc1C | 10 | 87.1 | 18.2 |  | 12.3 |  | 10.7 |  | 10.2 | 93.3 | 10.5 | 91.2 | 11.2 |  | 20.4 |  | 6.92 |  | 
9 | CN(C)c1ccc2[nH]c(Cl)c(/C=C3/C(=O)Nc4ccc(O)cc43)c2c1 | 2.24 |  | 5.13 | 95.5 | 3.89 | 69.2 | 3.8 |  | 5.25 | 79.4 | 7.24 |  | 5.13 | 91.2 | 8.91 |  | 2.88 |  | 
10 | COc1cc2c(cc1C)NC(=O)/C2=C/c1c(Cl)n(C)c2cc(C)c(OC)cc12 | 18.2 | 97.7 | 34.7 |  | 22.9 |  | 26.9 |  | 15.1 | 57.5 | 30.2 |  | 41.7 |  | 22.4 |  | 18.6 | 95.5 | 
11 | COc1cc2c(/C=C3/C(=O)N(C)c4ccccc43)c[nH]c2cc1C | 2 | 93.3 | 6.31 | 93.3 | 0.76 | 97.7 | 1.07 | 95.5 | 3.09 | 97.7 | 7.76 |  | 4.17 |  | 4.17 |  | 1.78 |  | TGI [1]: 35.5 µM; TGI (NSCLC): 66.1 µM; TGI [2]: 60.3 µM; TGI [3]: 42.7 µM; TGI [4]: 74.1 µM; TGI [5]: 60.3 µM; TGI [6]: 60.3 µM; TGI [7]: 81.3 µM; TGI [8]: 55 µM
